Literature values as cited in patent US20100119604A1, “Solid drug formulation and device for storage and controlled delivery thereof” (BOSTON SCIENTIFIC SCIMED, INC., priority 2003, published 2010).
Structures can show the parent of a compound that is named as a salt.

Conditions: daily exposure limit of excipient / residual solvent per ICH Guideline Q3C

| Compound | Daily limit [mg] |
| --- | --- |
| CC(Cl)(Cl)Cl [1,1,1-Trichloroethane] | 15 |
| ClC=C(Cl)Cl [1,1,2-Trichloroethene] | 0.8 |
| C=C(Cl)Cl [1,1-Dichloroethene] | 0.08 |
| ClCCCl [1,2-Dichloroethane] | 0.05 |
| COCCOC [1,2-Dimethoxyethane] | 1.0 |
| CCOCCO [2-Ethoxyethanol] | 1.6 |
| COCCO [2-Methoxyethanol] | 0.5 |
| CC(=O)O [Acetic acid] | 50 |
| CC(C)=O [Acetone] | 50 |
| CC#N [Acetonitrile] | 4.1 |
| COc1ccccc1 [Anisole] | 50 |
| c1ccccc1 [Benzene] | 0.02 |
| CCCCOC(C)=O [Butyl acetate] | 50 |
| ClC(Cl)(Cl)Cl [Carbon tetrachloride] | 0.04 |
| Clc1ccccc1 [Chlorobenzene] | 3.6 |
| CC(C)c1ccccc1 [Cumene] | 50 |
| C1CCCCC1 [Cyclohexane] | 38.8 |
| ClCCl [Dichloromethane] | 6.0 |
| C[S+](C)[O-] [Dimethyl sulfoxide] | 50 |
| CCO [Ethanol] | 50 |
| CCOCC [Ethyl ether] | 50 |
| CCOC=O [Ethyl formate] | 50 |

| Compound | Daily limit [mg] |
| --- | --- |
| OCCO [Ethyleneglycol] | 6.2 |
| NC=O [Formamide] | 2.2 |
| O=CO [Formic acid] | 50 |
| CCCCCO [Formulation 1-Pentanol, 1-Pentanol] | 50 |
| CCCO [Formulation 1-Propanol, 1-Propanol] | 50 |
| CCC(C)O (stereo not shown) [Formulation 2-Butanol, 2-Butanol] | 50 |
| CCCCCCC [Heptane] | 50 |
| CCCCCC [Hexane] | 2.9 |
| COC(C)=O [Methyl acetate] | 50 |
| CCCCC(C)=O [Methylbutyl ketone] | 0.5 |
| CC1CCCCC1 [Methylcyclohexane] | 11.8 |
| CC(=O)CC(C)C [Methylisobutyl ketone] | 50 |
| CN(C)C=O [N,N-Dimethylformamide] | 8.8 |
| CN1CCCC1=O [N-Methylpyrrolidone] | 5.3 |
| C[N+](=O)[O-] [Nitromethane] | 0.5 |
| CCCOC(C)=O [Propyl acetate] | 50 |
| c1ccncc1 [Pyridine] | 2.0 |
| C1CCOC1 [Tetrahydrofuran] | 7.2 |
| c1ccc2c(c1)CCCC2 [Tetralin] | 1.0 |
| COC(C)(C)C [tert-Butylmethyl ether] | 50 |
| Xylene | 21.7 |
